From US6440680B1, “Methods of identifying modulators of prostaglandin receptor EP1” (Merck Frosst Canada, Inc., priority 1993, dated 2002) come the findings set out here.

What is called IC50 is the concentration that inhibits the measured activity by half. The term Kd denotes the free concentration of one partner at which half of the binding sites on the other are occupied at equilibrium, for simple one-to-one binding.

Test [1] deals with T1, EP1 receptor (Homo sapiens, UniProt P34995, A71T/L230H).
T1 sequence (P34995 1-402 A71T/L230H): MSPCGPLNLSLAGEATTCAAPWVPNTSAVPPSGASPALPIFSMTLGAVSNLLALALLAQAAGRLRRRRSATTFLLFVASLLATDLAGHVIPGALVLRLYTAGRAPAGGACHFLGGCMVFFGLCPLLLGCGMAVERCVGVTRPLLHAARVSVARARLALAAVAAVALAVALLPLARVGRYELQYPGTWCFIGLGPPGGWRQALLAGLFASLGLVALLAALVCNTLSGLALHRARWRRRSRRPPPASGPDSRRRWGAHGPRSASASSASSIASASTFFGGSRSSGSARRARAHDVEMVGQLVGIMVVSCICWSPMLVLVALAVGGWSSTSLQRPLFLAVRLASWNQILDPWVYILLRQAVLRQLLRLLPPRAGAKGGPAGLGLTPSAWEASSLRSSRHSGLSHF
As to the kind of experiment: [3H]PGE2 binding assay with membranes of pcDNA-EP1-transfected COS-M6 cells. Further details: expressed in transfected cells; host or cells: COS-M6 cells (membrane fraction). Conditions: for IC50: 0.5 nM [3H]PGE2, FIG. 3B, read-out: IC50 for competition for [3H]PGE2 specific binding; for rank order of potency for competition for [3H]PGE2 specific binding: FIG. 3A, 0.03 nM-10 μM competitor. On the procedure:
FIGS. 3A-3B—Competition for [^3H]PGE2 binding to pcDNA-EP1-transfected COS-M6 membranes: [^3H]PGE2 binding assays were performed as described in the Methods in the presence of Panel A: 0.03 nM-10 μM PGE2 (Δ), PGE1 (▪), PGF2α (□), PGD2 (●), Panel B: 3 nM-100 μM AH6809 (◯), SC19220 (Δ), and Butaprost (⋄). Butaprost and AH 6809 were generous gifts from Miles Inc. and Glaxo Group Research Ltd.
The pcDNA-EP1 plasmid was transfected into COS-M6 Cells using the DEAE-dextran method. The cells were maintained in culture for 72 h, then harvested and membranes prepared by differential centrifugation (1000×g or 10 min, then 100,000×g for 30 min) following lysis of the cells by nitrogen cavitation (Frey, et al., 1993). [3H]Prostaglandin E2 ([^3H]PGE2) binding assays were performed in 10 mM potassium phosphate (pH 6.0), containing 1 mM EDTA, 0.5 nM [^3H]PGE2 (154 Ci/mmol; DuPont-New England Nuclear) and 60-100 μg of protein from the 100,000×g membrane fraction. Incubations were conducted for 1 h at room temperature prior to separation of the bound and free radioligand by rapid filtration as previously described (Frey et al., 1993 Eur. J. Mol. Pharmacol., 244, pp 239-250). Residual [3H]PGE2 bound to the filter was quantitated by liquid scintillation counting. Specific binding was defined as the difference between total binding and non-specific binding, determined in the presence of 1 μM PGE2.

Test [2] deals with T1, EP1 receptor. In words: Electrophysiological assay (Ca2+-dependent Cl- current) in pcDNA-EP1-injected Xenopus oocytes. Format: cell-based. The settings on record: bath perfusion of 1 μM PGE2, voltage clamped at -60 mV. On the procedure:
(§1) FIG. 4A-E—Expression of prostaglandin E2 receptor in Xenopus oocytes. Panel A: An inward Ca^2—dependent Cl^− current (shown as downward deflection) evoked by bath perfusion of 1 μM PGE2. The oocyte was injected with 5 ng of pcDNA-EP1 (Bam) and voltage-clamped at −60 mV. Panel B-D: PGE2-induced light responses in aequorin loaded oocytes. The intensity of aequorin light emission is expressed in relative units and the background emission typically was 0.5-0.7 units units. The PGE2 was injected into the recording cuvette at 10 s at a final concentration indicated on each trace Panel E; Light responses were evoked by different concentrations of PGE2 and PGF2α. Each bar represents the mean±s.e.m. of data from 10 to 15 oocytes from 4 donors. Data are expressed as the percentage of the response observed with 1 μM of PGE2.
Oocytes were taken from adult females of Xenopus laevis using standard surgical procedure (Colman, A., 1984 In: Transcription and Translation—A Practical Approach, IRL Press). […] Functional activity was determined by measurement of either agonist-induced Ca^2+-dependent Cl^− current or light emission in oocytes injected with the Ca^2+-specific photoprotein aequorin (J. Blinks, Friday Harbor Photoproteins, Washington), (Giladi and Spindel 1991 Biotechniques, 10, pp 744-747). […] Ligand-containing solution was perfused and the current response was recorded. […]

Test [3] concerns the target T1, EP1 receptor. As to the kind of experiment: Aequorin luminescence assay in pcDNA-EP1-injected Xenopus oocytes. The settings on record: for agonist potency from dose-response of aequorin light emission: aequorin-loaded oocytes, FIG. 4E. It is filed as cell-based. Here is the method: as §1
Oocytes were taken from adult females of Xenopus laevis using standard surgical procedure (Colman, A., 1984 In: Transcription and Translation—A Practical Approach, IRL Press). To remove follicle cells, oocytes were treated for 2-3 h with freshly made collagenase (2 mg/ml, type 2, Worthington Biochemical Corp., Freehold, N.J.) in Ca^2+-free ND96 solution (ND96 in mM: NaCl 96, KCl 2, MgCl2 1, HEPES 5, Na-pyruvate 2.5, theophylline 0.5, gentamicin […], +1.8 CaCl2, pH 7.6). […] Functional activity was determined by measurement of either agonist-induced Ca^2+-dependent Cl^− current or light emission in oocytes injected with the Ca^2+-specific photoprotein aequorin (J. Blinks, Friday Harbor Photoproteins, Washington), (Giladi and Spindel 1991 Biotechniques, 10, pp 744-747). […] Ligand-containing solution was perfused and the current response was recorded. For the luminometric assay, aequorin-loaded oocytes (100 ng/ooctye) were placed individually in cuvettes containing 0.4 ml ND96 and the light emission provoked by ligand addition was recorded using a Bio-Orbit 1251 luminometer (Fisher Sci. Ltd.).
Functional activity was determined in pcDNA-EP1-injected oocytes using electrophysiological and aequorin luminescence assays. […]

The target of a further test is T2, thromboxane receptor (Homo sapiens, UniProt P21731).
T2 construct: use of Vent polymerase (New England Biolabs) enabled amplification of the complete cDNA; expressed in transfected cells; host or cells: human embryonic kidney 293 cells and membranes
T2 sequence (P21731 1-343): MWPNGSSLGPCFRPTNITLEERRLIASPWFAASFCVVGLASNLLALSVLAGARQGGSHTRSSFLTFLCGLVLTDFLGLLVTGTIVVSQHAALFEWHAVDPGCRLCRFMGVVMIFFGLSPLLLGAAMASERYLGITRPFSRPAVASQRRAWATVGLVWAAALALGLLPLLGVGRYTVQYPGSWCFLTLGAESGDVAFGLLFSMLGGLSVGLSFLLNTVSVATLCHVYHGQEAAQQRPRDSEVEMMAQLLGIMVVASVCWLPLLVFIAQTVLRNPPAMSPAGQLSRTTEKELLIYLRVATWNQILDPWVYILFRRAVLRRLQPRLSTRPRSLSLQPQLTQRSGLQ
As to the kind of experiment: Binding of SQ-29548 in human embryonic kidney 293 cells and membranes transfected with thromboxane-receptor cDNA. From the text: The thromboxane receptor has been expressed in Xenopus oocytes. It can couple with endogenous signal transduction components to elicit a calcium-activated Cl^− current recorded by electrophysiological measurement using the procedure described by Hirata, M. et al., (1991), Nature, 349, pp. 617. Binding studies have been performed with COS-1 cell membranes transfected by thromboxane receptor cDNA using the ligand S-145 (Hirata, M. et al., (1991), Nature, 349, pp. 617). […] This level of expression is at least 5-10 times higher than in platelet membranes. On a per-cell basis assuming a 10% transfection efficiency, we estimate ≈10^6 binding sites/tranfected cell as compared to ≈1300 sites present on a platelet (Hourani, S. M. O. et al., (1991), Pharmacol. Rev., 43, pp. 243).

Each structure is given as a SMILES string.

As for `CCCC1([C@H](O)C/C=C/[C@H]2[C@H](O)CC(=O)[C@@H]2CCCCCCC(=O)OC)CCC1` [butaprost], the IC50 at EP1 receptor [1] turned out to be 50 µM. Also, the “activity at the [3H]PGE2 specific binding sites” value on EP1 receptor [1] (FIG. 3B) is “relatively inactive”.
For the compound `CC(C)Oc1ccc2c(=O)c3cc(C(=O)O)ccc3oc2c1` [AH 6809], on EP1 receptor [1], the IC50 was roughly 0.5 µM.
As to `CCCCC[C@H](O)/C=C/[C@H]1[C@H](O)CC(=O)[C@@H]1C/C=C\CCCC(=O)O` [PGE2], the “Ca2+-dependent Cl- current response” value on EP1 receptor [2] is given as “prominent current responses”. The “agonist potency from dose-response of aequorin light emission” value on EP1 receptor [3] was “more potent agonist of the expressed receptor when compared to PGF2α”. The “intracellular calcium in pcDNA-EP1 injected oocytes” value on EP1 receptor [3] (oocytes challenged with PGE2) is on record as “dose-dependent increase in intracellular calcium”. The “rank order of potency for competition for [3H]PGE2 specific binding” value (from here on “rank order of potency for competition”) on EP1 receptor [1] is “PGE2>PGE1>PGF2α>>PGD2”.
For `CC(=O)NNC(=O)N1Cc2ccccc2Oc2ccc(Cl)cc21` [SC 19220], the IC50 on EP1 receptor [1] was roughly 6.7 µM.
Turning to `CCCCC[C@H](O)/C=C/[C@@H]1[C@@H](C/C=C\CCCC(=O)O)[C@@H](O)C[C@H]1O` [PGF2α], the “agonist potency from dose-response of aequorin light emission” value at EP1 receptor [3] was “PGE2 was more potent agonist of the expressed receptor when compared to PGF2α”. Further, the “rank order of potency for competition” value at EP1 receptor [1] is listed as “PGE2>PGE1>PGF2α>>PGD2”.
On to `CCCCC[C@H](O)/C=C/[C@H]1[C@H](O)CC(=O)[C@@H]1C/C=C\CCCC(=O)O` [[^3H]PGE2, [3H]Prostaglandin E2], for which the “maximum number of specific binding sites (Bmax)” value on EP1 receptor [1] (Scatchard analysis, pcDNA-EP1 transfected COS-M6 cell membranes) is “approximately 360 fmol/mg of protein”. Moreover, on EP1 receptor [1] (Scatchard analysis, pcDNA-EP1 transfected COS-M6 cell membranes, read-out: equilibrium dissociation constant (KD)), the Kd amounted to 0.001 µM.
For `CCCCC[C@H](O)/C=C/[C@H]1C(=O)C[C@H](O)[C@@H]1C/C=C\CCCC(=O)O` [PGD2], on EP1 receptor [1], the “rank order of potency for competition” value was “PGE2>PGE1>PGF2α>>PGD2”.
Turning to `O=C(O)CCC/C=C\C[C@@H]1[C@H](CNNC(=O)Nc2ccccc2)[C@H]2CC[C@@H]1O2` [SQ-29548], on thromboxane receptor, the “binding affinity” value is on record as “high affinity binding” and the maximal binding is 2-3 pmol/mg protein.
`CCCCC[C@H](O)/C=C/[C@H]1[C@H](O)CC(=O)[C@@H]1CCCCCCC(=O)O` [PGE1]: the “rank order of potency for competition” value at EP1 receptor [1] was “PGE2>PGE1>PGF2α>>PGD2”.
